For test [1], the target named is Serine/threonine-protein kinase WNK1 (Homo sapiens) (UniProt Q9H4A3). Put plainly: WNK1 SGC Tm panel (DSF). To be noted: for ΔTm: Compound concentration 10.0 uM.
The target in test [2] is Serine/threonine-protein kinase PAK 1 (Homo sapiens) (UniProt Q13153). Put plainly: PAK1 SGC Tm panel (DSF). The settings on record: for ΔTm: Compound concentration 10.0 uM.
In test [3] the target is T1, Serine/threonine-protein kinase haspin (Homo sapiens) (UniProt Q8TF76).
T1 sequence (whole entry): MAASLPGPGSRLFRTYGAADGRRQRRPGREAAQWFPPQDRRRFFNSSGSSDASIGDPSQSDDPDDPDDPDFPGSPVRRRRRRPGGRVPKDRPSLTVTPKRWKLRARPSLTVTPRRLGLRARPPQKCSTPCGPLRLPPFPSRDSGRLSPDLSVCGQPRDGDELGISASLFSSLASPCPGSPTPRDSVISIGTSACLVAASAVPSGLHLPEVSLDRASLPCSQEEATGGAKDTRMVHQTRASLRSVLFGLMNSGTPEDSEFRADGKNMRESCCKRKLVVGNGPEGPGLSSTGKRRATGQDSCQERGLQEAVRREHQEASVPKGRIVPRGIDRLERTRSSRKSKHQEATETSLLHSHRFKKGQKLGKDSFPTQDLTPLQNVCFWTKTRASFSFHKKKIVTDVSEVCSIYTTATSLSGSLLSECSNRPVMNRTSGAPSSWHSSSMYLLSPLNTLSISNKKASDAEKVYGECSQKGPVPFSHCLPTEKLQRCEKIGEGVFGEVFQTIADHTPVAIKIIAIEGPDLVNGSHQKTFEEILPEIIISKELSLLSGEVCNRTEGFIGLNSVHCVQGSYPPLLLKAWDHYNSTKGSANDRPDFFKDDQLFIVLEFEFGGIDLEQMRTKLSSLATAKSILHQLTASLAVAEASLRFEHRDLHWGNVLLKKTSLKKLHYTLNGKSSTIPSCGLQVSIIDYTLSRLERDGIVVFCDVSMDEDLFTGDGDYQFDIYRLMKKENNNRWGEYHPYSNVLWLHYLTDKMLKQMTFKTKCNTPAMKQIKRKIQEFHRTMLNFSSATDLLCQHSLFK
Put plainly: GSG2 SGC Tm panel (DSF). The settings on record: for ΔTm: Compound concentration 10.0 uM.

Test [4] concerns the target Mitogen-activated protein kinase 14 (Homo sapiens) (UniProt Q16539). Put plainly: MAPK14 SGC Tm panel (DSF). The settings on record: for ΔTm: Compound concentration 10.0 uM.
Test [5] has as its target Histamine H1 receptor (Homo sapiens) (UniProt P35367). The settings on record: Compound concentration 10.0 uM.
Test [6] addresses T2, Dual specificity mitogen-activated protein kinase kinase 7 (Homo sapiens) (UniProt O14733).
T2 sequence (whole entry): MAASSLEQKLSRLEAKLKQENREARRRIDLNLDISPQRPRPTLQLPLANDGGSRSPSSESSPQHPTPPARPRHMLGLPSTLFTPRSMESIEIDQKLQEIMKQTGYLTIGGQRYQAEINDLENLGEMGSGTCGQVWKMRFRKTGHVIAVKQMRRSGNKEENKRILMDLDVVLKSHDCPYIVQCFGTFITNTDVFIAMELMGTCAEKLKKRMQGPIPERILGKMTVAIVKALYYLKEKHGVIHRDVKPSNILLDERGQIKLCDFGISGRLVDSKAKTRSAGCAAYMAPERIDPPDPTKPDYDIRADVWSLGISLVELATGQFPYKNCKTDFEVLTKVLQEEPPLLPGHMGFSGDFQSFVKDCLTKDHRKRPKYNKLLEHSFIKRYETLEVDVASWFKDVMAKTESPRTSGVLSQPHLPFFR
Put plainly: MAP2K7 SGC Tm panel (DSF). To be noted: for ΔTm: Compound concentration 10.0 uM.

The target of test [7] is T3, Phosphorylase b kinase gamma catalytic chain, liver/testis isoform (Homo sapiens) (UniProt P15735).
T3 sequence (whole entry): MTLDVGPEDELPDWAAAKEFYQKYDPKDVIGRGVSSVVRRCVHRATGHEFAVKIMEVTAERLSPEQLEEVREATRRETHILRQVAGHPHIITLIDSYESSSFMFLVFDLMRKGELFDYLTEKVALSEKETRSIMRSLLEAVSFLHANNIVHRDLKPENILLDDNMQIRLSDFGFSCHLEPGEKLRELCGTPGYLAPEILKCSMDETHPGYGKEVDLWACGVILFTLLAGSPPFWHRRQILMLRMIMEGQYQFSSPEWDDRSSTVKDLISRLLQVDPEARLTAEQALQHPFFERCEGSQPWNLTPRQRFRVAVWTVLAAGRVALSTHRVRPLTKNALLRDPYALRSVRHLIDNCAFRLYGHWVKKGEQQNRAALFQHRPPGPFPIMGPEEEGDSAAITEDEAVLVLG
Put plainly: PHKG2 SGC Tm panel (DSF). To be noted: for ΔTm: Compound concentration 10.0 uM.

Test [8] has as its target T4, Serine/threonine-protein kinase 4 (Homo sapiens) (UniProt Q13043).
T4 sequence (whole entry): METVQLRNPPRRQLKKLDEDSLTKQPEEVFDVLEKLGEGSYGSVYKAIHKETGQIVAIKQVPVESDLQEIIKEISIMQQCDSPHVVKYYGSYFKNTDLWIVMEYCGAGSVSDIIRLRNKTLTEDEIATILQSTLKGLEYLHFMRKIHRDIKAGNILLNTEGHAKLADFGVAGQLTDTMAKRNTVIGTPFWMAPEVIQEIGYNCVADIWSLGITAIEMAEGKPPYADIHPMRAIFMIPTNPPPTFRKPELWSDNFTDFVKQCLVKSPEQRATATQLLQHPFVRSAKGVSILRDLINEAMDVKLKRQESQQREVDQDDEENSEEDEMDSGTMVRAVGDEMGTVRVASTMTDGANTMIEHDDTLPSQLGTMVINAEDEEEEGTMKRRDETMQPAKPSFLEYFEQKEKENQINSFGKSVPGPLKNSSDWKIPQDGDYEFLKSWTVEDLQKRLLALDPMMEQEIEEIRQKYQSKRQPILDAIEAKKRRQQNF
Put plainly: STK4 SGC Tm panel (DSF). To be noted: for ΔTm: Compound concentration 10.0 uM.

Among the data in ChEMBL document CHEMBL5303765, “Data for DCP probe BAY-7081” (2023) are delta Tm Staurosporine positive control, ΔTm and inhibition values, retold here.

What is called inhibition is the relative decrease from the control value, in per cent.

Chain of Histamine H1 receptor (Homo sapiens) (P35367 whole entry): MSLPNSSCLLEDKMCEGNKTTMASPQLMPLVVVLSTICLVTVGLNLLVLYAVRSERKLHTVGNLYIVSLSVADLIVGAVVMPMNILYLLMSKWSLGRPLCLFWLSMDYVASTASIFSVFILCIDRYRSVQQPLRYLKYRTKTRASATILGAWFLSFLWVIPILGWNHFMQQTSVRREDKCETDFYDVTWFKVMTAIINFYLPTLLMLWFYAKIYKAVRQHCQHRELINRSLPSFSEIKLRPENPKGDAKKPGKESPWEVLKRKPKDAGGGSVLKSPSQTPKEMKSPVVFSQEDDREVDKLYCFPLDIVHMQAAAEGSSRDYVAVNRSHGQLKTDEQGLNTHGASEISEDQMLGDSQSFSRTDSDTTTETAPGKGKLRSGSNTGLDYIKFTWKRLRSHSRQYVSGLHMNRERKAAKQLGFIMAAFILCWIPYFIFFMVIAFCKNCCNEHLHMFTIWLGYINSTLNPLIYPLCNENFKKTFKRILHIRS
Chain of Mitogen-activated protein kinase 14 (Homo sapiens) (Q16539 whole entry): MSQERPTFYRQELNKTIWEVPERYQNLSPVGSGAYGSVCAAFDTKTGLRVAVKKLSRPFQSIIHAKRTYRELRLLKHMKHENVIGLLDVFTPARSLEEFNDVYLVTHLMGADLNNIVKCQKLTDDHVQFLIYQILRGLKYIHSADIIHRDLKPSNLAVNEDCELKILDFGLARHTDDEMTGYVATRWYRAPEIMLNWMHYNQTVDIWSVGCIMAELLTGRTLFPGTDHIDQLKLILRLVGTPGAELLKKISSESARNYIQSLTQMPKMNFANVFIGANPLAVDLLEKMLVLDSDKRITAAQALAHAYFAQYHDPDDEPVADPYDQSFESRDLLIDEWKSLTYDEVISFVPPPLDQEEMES
Chain of Serine/threonine-protein kinase WNK1 (Homo sapiens) (Q9H4A3 whole entry, looked up): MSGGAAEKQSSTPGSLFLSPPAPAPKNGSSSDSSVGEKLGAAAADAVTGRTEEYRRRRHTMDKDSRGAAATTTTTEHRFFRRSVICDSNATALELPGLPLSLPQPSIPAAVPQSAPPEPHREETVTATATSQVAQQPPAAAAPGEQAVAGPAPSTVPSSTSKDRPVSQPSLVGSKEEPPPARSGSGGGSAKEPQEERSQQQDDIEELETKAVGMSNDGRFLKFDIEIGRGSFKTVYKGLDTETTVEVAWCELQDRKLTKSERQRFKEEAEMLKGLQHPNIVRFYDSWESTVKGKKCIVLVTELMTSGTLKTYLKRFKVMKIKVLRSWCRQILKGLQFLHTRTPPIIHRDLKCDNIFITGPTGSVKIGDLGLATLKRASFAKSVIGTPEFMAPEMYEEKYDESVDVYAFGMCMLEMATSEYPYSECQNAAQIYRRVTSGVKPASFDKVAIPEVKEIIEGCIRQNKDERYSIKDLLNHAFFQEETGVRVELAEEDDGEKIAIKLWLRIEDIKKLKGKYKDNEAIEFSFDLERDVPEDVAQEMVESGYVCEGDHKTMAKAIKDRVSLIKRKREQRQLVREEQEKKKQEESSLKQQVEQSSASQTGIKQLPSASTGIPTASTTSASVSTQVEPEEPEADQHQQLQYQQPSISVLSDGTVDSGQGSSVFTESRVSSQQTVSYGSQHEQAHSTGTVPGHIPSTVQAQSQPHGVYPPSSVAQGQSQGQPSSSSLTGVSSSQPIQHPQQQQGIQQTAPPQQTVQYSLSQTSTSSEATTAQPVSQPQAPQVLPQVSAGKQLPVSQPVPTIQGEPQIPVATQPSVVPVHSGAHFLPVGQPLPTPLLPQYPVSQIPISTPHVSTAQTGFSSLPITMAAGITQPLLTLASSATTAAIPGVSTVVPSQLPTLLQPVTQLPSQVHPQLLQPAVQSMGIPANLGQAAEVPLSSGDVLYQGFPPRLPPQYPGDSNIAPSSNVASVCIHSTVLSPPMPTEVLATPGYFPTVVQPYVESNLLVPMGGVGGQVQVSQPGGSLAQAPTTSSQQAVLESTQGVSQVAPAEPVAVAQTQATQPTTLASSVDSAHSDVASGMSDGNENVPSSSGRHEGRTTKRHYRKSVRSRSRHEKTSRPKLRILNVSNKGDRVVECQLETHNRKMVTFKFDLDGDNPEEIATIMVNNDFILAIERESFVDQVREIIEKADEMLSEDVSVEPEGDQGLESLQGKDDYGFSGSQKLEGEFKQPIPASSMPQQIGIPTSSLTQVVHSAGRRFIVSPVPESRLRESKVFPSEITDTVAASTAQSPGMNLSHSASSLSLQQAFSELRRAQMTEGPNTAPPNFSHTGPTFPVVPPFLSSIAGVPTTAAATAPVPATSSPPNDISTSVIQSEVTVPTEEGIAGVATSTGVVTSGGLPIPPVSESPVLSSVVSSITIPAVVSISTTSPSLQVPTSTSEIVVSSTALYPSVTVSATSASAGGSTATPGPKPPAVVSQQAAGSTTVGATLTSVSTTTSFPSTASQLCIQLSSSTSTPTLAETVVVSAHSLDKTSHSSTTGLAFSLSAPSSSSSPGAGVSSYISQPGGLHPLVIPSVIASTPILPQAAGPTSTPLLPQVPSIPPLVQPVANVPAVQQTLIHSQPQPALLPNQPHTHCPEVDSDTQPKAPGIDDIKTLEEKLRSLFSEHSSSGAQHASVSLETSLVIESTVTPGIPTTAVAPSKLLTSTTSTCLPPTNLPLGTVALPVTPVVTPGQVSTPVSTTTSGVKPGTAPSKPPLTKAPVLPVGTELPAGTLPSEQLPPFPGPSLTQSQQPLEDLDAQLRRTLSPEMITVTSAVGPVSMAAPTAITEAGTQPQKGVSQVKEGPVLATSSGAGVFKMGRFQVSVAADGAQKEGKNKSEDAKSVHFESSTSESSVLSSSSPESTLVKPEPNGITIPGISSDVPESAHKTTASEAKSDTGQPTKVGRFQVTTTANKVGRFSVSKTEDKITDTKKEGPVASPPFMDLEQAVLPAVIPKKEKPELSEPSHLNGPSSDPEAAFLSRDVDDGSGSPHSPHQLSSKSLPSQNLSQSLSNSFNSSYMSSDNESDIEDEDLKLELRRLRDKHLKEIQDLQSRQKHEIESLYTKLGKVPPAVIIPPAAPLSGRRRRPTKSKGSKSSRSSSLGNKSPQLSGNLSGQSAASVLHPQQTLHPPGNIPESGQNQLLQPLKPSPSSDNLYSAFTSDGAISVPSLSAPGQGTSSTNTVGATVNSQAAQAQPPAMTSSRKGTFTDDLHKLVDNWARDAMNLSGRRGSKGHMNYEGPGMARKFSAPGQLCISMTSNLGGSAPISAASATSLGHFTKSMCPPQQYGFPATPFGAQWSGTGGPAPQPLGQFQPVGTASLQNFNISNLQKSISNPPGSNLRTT
Chain of Serine/threonine-protein kinase PAK 1 (Homo sapiens) (Q13153 whole entry): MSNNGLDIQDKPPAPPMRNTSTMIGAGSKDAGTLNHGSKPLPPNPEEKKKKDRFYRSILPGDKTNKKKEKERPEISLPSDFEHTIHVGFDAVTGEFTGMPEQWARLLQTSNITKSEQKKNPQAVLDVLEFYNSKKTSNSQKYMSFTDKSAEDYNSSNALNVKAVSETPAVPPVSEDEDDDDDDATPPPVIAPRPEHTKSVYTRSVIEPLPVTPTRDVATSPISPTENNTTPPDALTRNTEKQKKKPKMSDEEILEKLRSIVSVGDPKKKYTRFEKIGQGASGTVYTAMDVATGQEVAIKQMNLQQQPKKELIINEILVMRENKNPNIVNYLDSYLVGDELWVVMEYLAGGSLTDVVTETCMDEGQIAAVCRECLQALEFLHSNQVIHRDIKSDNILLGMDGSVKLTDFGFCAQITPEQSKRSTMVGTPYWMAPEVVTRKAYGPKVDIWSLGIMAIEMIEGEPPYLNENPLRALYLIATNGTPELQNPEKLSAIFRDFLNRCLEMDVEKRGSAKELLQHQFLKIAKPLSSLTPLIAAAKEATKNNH

In the case of `CCC[C@H]1CNCc2c1[nH]c(=O)c(C#N)c2N1CCC2(CC1)CC2`, the delta Tm Staurosporine positive control was found to be 2.2 in test [1]; 7.21 in test [2]; 8.53 in test [3]; 0.178 in test [4]; 7.05 in test [6]; 21.5 in test [7]. The delta Tm Staurosporine positive control in test [8] turned out to be 16.2. In addition, the ΔTm in test [1] was -0.456; in test [2], -0.68; in test [3], -0.0501; in test [4], -0.473; in test [6], -1.17; in test [7], -0.755. In addition, the ΔTm in test [8] is -0.568. Further, the inhibition in test [5] was -2.94%.

As for `CCC[C@@H]1CNCc2c1[nH]c(=O)c(C#N)c2N1CCC2(CC1)CC2`, the delta Tm Staurosporine positive control in test [1] was 2.2; in test [2], 7.21; in test [3], 8.53; in test [4], 0.178; in test [6] it was 7.05; in test [7], 21.5. Also, the delta Tm Staurosporine positive control in test [8] came out at 16.2. Also, the ΔTm in test [1] was -0.301; in test [2] it was -0.679; in test [3] it was -0.64; in test [4], -0.46; in test [6], -1.17; in test [7], -0.827. Also, the ΔTm in test [8] was -0.519. For the same molecule, in test [5], the inhibition was 4.72%.
